{"source": "patent US20240075087A1", "about": "“COMPOSITIONS AND METHODS COMPRISING HEMP EXTRACT FOR THE TREATMENT OF ANIMALS IN NEED” (Portland Technology Holdings LLC, priority 2021, published 2024)", "key": {"[1]": {"test_system": "HMPOS osteosarcoma cell line", "test": "48 hours MTT proliferation assay, HMPOS", "assay_type": "cell-based, canine", "settings": "pure compound", "experimental": "3-(4,5-Dimethylthaizol-2-yl)-2,5-diphenyltetrazolium bromide (MTT) assays are performed on all previously described cell lines; CMT12, HMPOS, D17, Abrams and 17-71. […] Cells are treated with vehicle (methanol or ethanol/DMSO mix) or various concentrations of the CBD, CBDA or CBD-rich hemp extract ranging from 0.42 to 20 μg/mL in serial dilution for 48 hours. MTT assays are performed after 48 hours of treatment by adding 20 μL of MTT dye ([…] filtered 5 mg/mL in phosphate-buffered saline [PBS]) to each well and incubating at 37° C. in 5% CO2 for 2 hours. The media is then aspirated, washed once with 200 μL of PBS and then solubilized in 200 μL of ethanol. Immediate analysis of the optical density of each well is performed using a spectrophotometric plate reader (Epoch; Biotek, Winooski, Vermont) at a wavelength of 570 nm as previously described (e.g., Vega-Avila E and Pugsley M K, An overview of colorimetric assay methods used to assess survival or proliferation of mammalian cells, Proc West Pharmacol Soc., 2011, 54, pp. 10-14 which is incorporated herein by reference in its entirety). The percent proliferating cells of control for each concentration is averaged and reported as a mean+/—SD from triplicate wells over three experiments.\nFor CBD, CBDA and hemp extract concentrations needed to obtain a 50% inhibition of cell proliferation (IC50) are then calculated across experiments by Probit analysis using XLFit5 software (IDBS, Guildford, United Kingdom) for reporting the results for each cell line."}, "CYP2B11": {"biological_target": "T1, CYP2B11 (Canis lupus familiaris, UniProt P24460)", "T1 sequence (P24460 1-494)": "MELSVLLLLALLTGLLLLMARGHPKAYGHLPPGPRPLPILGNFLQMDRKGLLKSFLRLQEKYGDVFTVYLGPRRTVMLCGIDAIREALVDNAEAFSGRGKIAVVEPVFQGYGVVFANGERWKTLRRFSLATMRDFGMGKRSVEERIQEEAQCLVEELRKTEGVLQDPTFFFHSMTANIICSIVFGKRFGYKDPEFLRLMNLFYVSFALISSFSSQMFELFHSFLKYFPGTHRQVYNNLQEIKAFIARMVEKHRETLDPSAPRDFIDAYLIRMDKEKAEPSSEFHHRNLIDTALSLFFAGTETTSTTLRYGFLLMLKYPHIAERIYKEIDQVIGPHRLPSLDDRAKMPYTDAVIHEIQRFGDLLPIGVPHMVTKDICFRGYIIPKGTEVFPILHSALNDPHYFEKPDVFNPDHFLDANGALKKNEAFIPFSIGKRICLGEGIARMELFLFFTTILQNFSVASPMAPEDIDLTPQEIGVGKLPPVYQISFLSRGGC", "test": "CYP2B11 activity inhibition in pooled dog liver microsomes", "experimental": "Inhibition potency (i.e. IC50) is determined by measuring the decrement in metabolism of P450-specific marker activities in pooled dog liver microsomes with increasing concentrations of CBD, CBDA, and hemp extracts. P450-specific markers include bupropion 6-hydroxylation (CYP2B11), dextromethorphan 0-demethylation (CYP2D15) and omeprazole sulfoxidation (CYP3A12). IC50 values are determined both with and without preincubation of liver microsomes with potential inhibitor to evaluate whether there is mechanism-based time-dependent inhibition.\nThe following parameters are assessed: (1) the rates of CBD and CBDA metabolism by dog liver microsomes and by 11 recombinant canine P450 enzymes; (2) the predicted percent contribution of each P450 to total CBD and CBDA metabolism in dog liver; and (3) IC50 values for inhibition of CYP2B11, CYP2D15 and CYP3A12 metabolism in dog liver, both with and without inhibitor preincubation.\nFIGS. 13-15 show activity assays for CYP3A12 (FIGS. 13A and 13B), CYP2B11 (FIGS. 14A and 14B), and CYP2D15 (FIGS. 15A and 15B). Assays using either no preincubation (FIGS. 13A, 14A, and 15A) or 20 minutes of preincubation (FIGS. 13B, 14B, and 15B) were performed."}, "CMT12 cells": {"test_system": "CMT12 cells", "test": "Trypan blue exclusion assay, CMT12", "assay_type": "cell-based, canine", "settings": "48 hours, vehicle control 3±1%", "experimental": "(§1) The trypan blue exclusion assay is performed on canine primary dermal fibroblasts (CDF) because of the slow rate of proliferation and low metabolic activity of these normal canine cells, precluding productive MTT assays. The effects of CBD treatments are compared with the results obtained on the 17-71, CMT12 and D17 cell lines for comparative purposes. For the CDF cells, applied cell extracellular matrix (ABM) is applied overnight to 24-well tissue culture-treated plates (Applied Biological Materials [ABM], Richmond, BC, Canada). For all cell lines, cells are plated at a density of 5×10^3 cells per well and incubated until 60% confluent before treatment with methanol vehicle control, 3.75, 7.5, and 15 μg/mL of CBD to cells for 48 hours. Cells are then trypsinized, collected and centrifuged at 1900 g for 10 minutes. With the exception of the 17-71 cell line, cells are detached with Accumax (Invitrogen, Carlsbad, California). The cell pellet is resuspended in 0.1% trypan blue (Sigma Aldrich, St Louis, Missouri) in PBS solution, loaded on a Cell Countess disposable cell counting slide with automatic counting of all positively stained cells in the Countess II Cell Counter under identical settings for each cell line (Invitrogen; ThermoFisher Scientific, Carlsbad, California) using the same parameters for each cell line. All treatments are performed in triplicate and the percent of viable cells are averaged."}, "17-71 cells": {"test_system": "17-71 cells", "test": "Trypan blue exclusion assay, 17-71", "assay_type": "cell-based, canine", "settings": "48 hours, vehicle control 3±1%", "experimental": "as §1"}}}
{"compound": "C=C(C)[C@@H]1CCC(C)=C[C@H]1c1c(O)cc(CCCCC)cc1O", "note": "[CBD, cannabidiol]", "values": [{"measurement": "IC50", "setting": "[1]; Canis lupus familiaris, read-out: IC50 (Probit)", "result": 3.6, "unit": "µg/mL"}, {"measurement": "concentrations that significantly diminished proliferation vs vehicle control", "setting": "[1]; P<0.05", "result": "≥ 5", "unit": "µg/mL"}, {"measurement": "IC50", "setting": "CYP2B11", "result": "< 1000", "unit": "nM"}, {"measurement": "time-dependent inhibition (TDI)", "setting": "CYP2B11; CYP2B11, no preincubation vs 20 min preincubation, 10 μM", "result": "showed time-dependent inhibition (TDI)"}, {"measurement": "percent trypan blue positive cells", "setting": "CMT12 cells; 3.75 μg/mL CBD", "result": "4±2", "unit": "%"}, {"measurement": "percent trypan blue positive cells", "setting": "CMT12 cells; 7.5 μg/mL CBD", "result": "9±3", "unit": "%"}, {"measurement": "percent trypan blue positive cells", "setting": "CMT12 cells; 15 μg/mL CBD", "result": "87%±8%"}, {"measurement": "percent trypan blue positive cells", "setting": "17-71 cells; 3.75 μg/mL CBD", "result": "7±4", "unit": "%"}, {"measurement": "percent trypan blue positive cells", "setting": "17-71 cells; 7.5 μg/mL CBD", "result": "27±8", "unit": "%"}, {"measurement": "percent trypan blue positive cells", "setting": "17-71 cells; 15 μg/mL CBD", "result": "55%±6%"}]}
